#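 These data come from cells grown in 96-well plates and exposed to compound for 48 hours at five concentrations. TGI is the concentration that stops growth completely.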 *1 amine or outer side, *2 acyl side, *3 side chain or, on linkers, in order; H or OH if unused. Where a SMILES comes first, the peptide text is derived from it. Bridges are numbered along the chain shown (N, C = ends). Roman numbers before positions name the chains, in order. [ ]: non-standard residue; d: D form. Actinocin(9to1) = Cc1c2oc3c(C)ccc(C(=O)[*:1])c3nc-2c(C(=O)[*:2])c(N)c1=O; NMeH = CN[CH](Cc1c[nH]cn1)C(=O)O; Sar = CNCC(=O)O
# Key:
# Assay in all cases: NCI-60 cell line screen, 48 h
# COLO 205 colon = system: COLO 205 colon
# MALME-3M melanoma = system: MALME-3M melanoma
# MDA-N = system: MDA-N
# RXF 393 renal = system: RXF 393 renal
# SK-MEL-2 melanoma = system: SK-MEL-2 melanoma
# SK-MEL-28 melanoma = system: SK-MEL-28 melanoma
# SN12C renal = system: SN12C renal
# SW-620 colon = system: SW-620 colon
# U251 CNS = system: U251 CNS
# A498 renal = system: A498 renal
SMILES,TGI (COLO 205 colon) [µM],TGI (MALME-3M melanoma) [µM],TGI (MDA-N) [µM],TGI (RXF 393 renal) [µM],TGI (SK-MEL-2 melanoma) [µM],TGI (SK-MEL-28 melanoma) [µM],TGI (SN12C renal) [µM],TGI (SW-620 colon) [µM],TGI (U251 CNS) [µM],TGI (A498 renal) [µM]
CC[C@@]1(O)C(=O)OCc2c1cc1n(c2=O)Cc2c-1nc1ccc(O)cc1c2[Si](C)(C)C(C)(C)C,1.53,0.179,4.63,0.0378,0.786,10.7,< 0.0233,10.9,0.0192,
CCCC[C@@H](C)/C=C1\CN2CCC[C@H]2[C@@](C)(OCc2ccccc2)[C@@H]1O,> 50,> 50,> 50,> 50,> 50,> 50,> 50,> 50,> 50,> 50
COC(C/C(=C/CO[Si](C(C)C)(C(C)C)C(C)C)C(=O)N(COCC[Si](C)(C)C)c1ccccc1I)OC,> 100,,> 100,,29.9,50,> 100,> 100,94.8,> 100
O[C@@H]1C=C[C@]23CCN(Cc4cc5c(cc42)OCO5)[C@@H]3C1,> 100,> 100,> 100,> 100,> 100,> 100,> 100,> 100,> 100,> 100
COC(=O)[C@@H]1CS(=O)(=O)C(C(C)C)N1C(C)=O (stereo partly drawn),> 100,> 100,> 100,> 100,> 100,> 100,> 100,> 100,> 100,> 100
Cc1cn(C2CCC(CO)(CF)O2)c(=O)[nH]c1=O (stereo not drawn),> 100,,> 100,> 100,> 100,> 100,> 100,> 100,> 100,> 100
FC(F)(F)c1cc(N(C2c3ccccc3C=Cc3ccccc32)P(Cl)Cl)cc(C(F)(F)F)c1,51.6,36,76.9,27.1,37,87.8,32.7,82.6,33.8,56.8
COc1cc2cc(C(=O)N3CC(COS(C)(=O)=O)c4ccc(NC(=O)OCc5ccccc5)cc43)[nH]c2c(OC)c1OC (stereo not drawn),> 100,> 100,> 100,> 100,> 100,> 100,> 100,> 100,> 100,> 100
C[C@@H]1[C@@H](C)C(c2ccccc2)O[Si]1(C(C)(C)C)C(C)(C)C (stereo partly drawn),30.3,37,48.4,31,29.3,> 66.7,31.3,34.9,30.7,33.9
C1=C(c2ccccc2)C(N2CCOCC2)Oc2ccccc21 (stereo not drawn),> 100,> 100,> 100,> 100,,> 100,> 100,> 100,> 100,92.3
N#CC(CCN1CCC(Nc2ccccc2)(c2nnnn2C2CCCCC2)CC1)(c1ccccc1)c1ccccc1,> 100,> 100,> 100,> 100,> 100,> 100,> 100,> 100,> 100,> 100
c1nc(NCCc2cnc[nH]2)c2[nH]cnc2n1,> 100,> 100,> 100,> 100,> 100,> 100,> 100,> 100,> 100,> 100
COc1cccc(N=N/C(=N/NC(=O)c2ccc(C)cc2)c2ccc(N(CCC#N)CCC#N)cc2OC)c1,> 100,> 100,> 100,> 100,> 100,> 100,> 100,> 100,> 100,> 100
O=P1(N2CCOCC2)OCCO1,> 100,> 100,> 100,> 100,,> 100,> 100,> 100,> 100,> 100
Cc1c(C(=O)c2ccc(N)c3ccccc23)c2ccccc2n1CCN1CCOCC1,86.9,61.8,55,67.7,47.2,> 100,> 94.1,> 100,> 95.6,81.8
CC1=NN(c2cccc(Cl)c2)C2(C1=Cc1ccc(O)cc1)C(Cl)C(=O)N2c1nc2ccccc2s1 (stereo not drawn),,,64.8,47.9,45.9,> 100,,34.8,49.2,42.5
COc1cc(/C=C2\CC/C(=C\c3cc(OC)c(O)c(OC)c3)C2=O)cc(OC)c1O,54.2,1.74,> 23.4,3.74,2.02,,> 29.3,> 100,> 49.2,2.86
Cn1cnc(N)c(N=O)c1=O,> 10,> 10,> 10,> 10,> 10,> 10,> 10,> 10,> 10,> 10
C1=NCCNCCNCCN=Cc2ccc(cc2)OCc2cccc(n2)COc2ccc1cc2,> 100,> 100,> 100,> 100,> 100,> 100,> 100,> 100,> 100,> 100
Cc1ccc(S(=O)(=O)NC(CCC(=O)NNc2ccccc2)C(=O)NNc2ccccc2)cc1 (stereo not drawn),54.1,> 100,> 100,> 100,83.2,,,> 100,> 100,> 100
CC(C)(C)OC(=O)N/C(C=O)=C\C1CCCCC1,36.8,70.4,50.3,59.7,54.9,> 100,42.1,> 100,40.3,

SMILES,TGI (COLO 205 colon) [µM],TGI (MALME-3M melanoma) [µM],TGI (MDA-N) [µM],TGI (RXF 393 renal) [µM],TGI (SK-MEL-2 melanoma) [µM],TGI (SK-MEL-28 melanoma) [µM],TGI (SN12C renal) [µM],TGI (SW-620 colon) [µM],TGI (U251 CNS) [µM],TGI (A498 renal) [µM]
CCN1C/C(=C\c2ccc(Cl)cc2)c2nc(N)c(C#N)c(-c3ccc(Cl)cc3)c2C1,> 100,> 100,> 100,> 100,> 100,> 100,,> 100,> 100,> 100
CCCCc1ccc(Nc2ncc3ncn(COCCO)c3n2)cc1,> 100,68.4,> 100,86.6,73.1,,> 100,> 100,> 100,> 100
CC1CC[C@@]2(OC1)O[C@H]1[C@H](O)[C@H]3[C@@H]4CC[C@H]5C[C@@H](OC6OC(CO)C(OC7OC(CO)C(O)C(OC8OCC(O)C(O)C8O)C7OC7OC(CO)C(O)C(O)C7OC7OC(CO)C(O)C(O)C7O)C(O)C6O)[C@H](O)C[C@]5(C)[C@H]4CC[C@]3(C)[C@H]1[C@@H]2C (stereo partly drawn),> 10,> 10,> 10,> 10,> 10,> 10,> 10,> 10,> 10,> 10
N#C/C(=C/C=C/c1ccco1)C(N)=O,> 10,> 10,> 10,> 10,> 10,> 10,> 10,> 10,> 10,
Cc1cc(-n2nnc(C(=O)O)c2-c2ccccc2)c2ccc(Cl)cc2n1,> 100,> 100,> 100,> 100,> 100,> 100,> 100,> 100,> 100,> 100
O=C1CCCNn2c(nc3ncccc3c2=O)N1,> 100,> 100,> 100,> 100,> 100,,,> 100,> 100,> 100
COc1cc2ccc(C(=O)NCCCNC(=O)c3ccc4cc(OC)c(OC)cc4c3)cc2cc1OC,> 100,> 100,> 100,,> 100,> 100,> 100,> 100,> 100,> 100
"Cc1c2oc3c(C)ccc(C(=O)NC4C(=O)NC(C(C)C)C(=O)N5CCCC5C(=O)N(C)CC(=O)N(C)C(Cc5cnc[nH]5)C(=O)OC4C)c3nc-2c(C(=O)NC2C(=O)NC(C(C)C)C(=O)N3CCCC3C(=O)N(C)CC(=O)N(C)C(Cc3cnc[nH]3)C(=O)OC2C)c(N)c1=O (stereo not drawn) (I: TVP[Sar][NMeH] / II: TVP[Sar][NMeH]; ester I:1-I:C, II:1-II:C; linker I:N-II:N via Actinocin(9to1); configuration not given here)",> 100,> 100,81.4,51.9,> 100,> 100,> 100,> 100,> 100,
N#Cc1c(-c2ccc(Cl)cc2)cc(-c2ccc(Nc3ccnc4cc(Cl)ccc34)cc2)[nH]c1=O,> 100,> 100,> 100,> 68,> 100,> 100,,> 100,> 61,> 88.9
CNc1nnc(CCCCCCCCc2nnc(NC)o2)o1,> 100,,> 100,> 100,> 100,> 100,> 100,> 100,63.7,> 100
Cc1cc(S(=O)(=O)Nc2nc3ncccc3[nH]2)c(S)cc1Cl,> 100,> 100,> 100,> 100,,> 100,> 100,> 100,> 100,> 100
Cc1ccc(S(=O)(=O)NC(=O)NC(Cc2ccc(O)cc2)C(=O)O)cc1 (stereo not drawn),> 100,> 100,> 100,> 100,> 100,> 100,> 100,> 100,> 100,
COC(=O)c1ccccc1C1CN=NC12Cc1c(ccc3c1CCC3)C2=O (stereo not drawn),> 100,> 100,49.5,> 100,> 100,> 100,> 100,> 100,> 100,
ClC(Cl)(Cl)C1CCOC1n1nnc2ccccc21 (stereo not drawn),> 100,> 100,> 100,> 100,> 100,,> 100,,> 100,> 100
Fc1cccc(F)c1C1SCc2nc3cc(Cl)c(Cl)cc3n21 (stereo not drawn),> 100,> 100,> 100,> 100,> 100,> 100,> 100,> 100,> 100,
COc1ccc(C2C3=C(N=C4SC(C(C)=O)=C(C)N42)c2ccccc2CC3)cc1 (stereo not drawn),> 100,,> 100,> 100,> 100,> 100,> 100,> 100,> 100,> 100
Cc1nc2cc(F)c(F)cc2[nH]c1=O,> 100,> 100,> 100,> 100,> 100,> 100,> 100,> 100,> 100,
O=[N+]([O-])c1ccc(NN=C2CN3CCN(C2)c2ccccc23)c([N+](=O)[O-])c1,> 100,> 100,> 100,,,> 100,> 100,> 100,> 100,> 100
Cc1cc2[nH]c3c(C#N)c(-c4ccccc4)c(N=Nc4ccc(F)cc4)c(=O)n3c2cc1C,> 100,,> 100,> 100,> 100,> 100,> 100,> 100,> 100,> 100
O=C1NC(=O)c2ccccc2/C1=C/c1ccc2c(c1)OCO2,,> 100,> 100,17.4,61.4,,47.1,> 100,,> 100
CC(C)(C)OC(=O)NC12C3C4C1C1C2C3C41NC(=O)OC(C)(C)C (stereo not drawn),> 100,,> 100,84.4,> 100,> 100,> 100,> 100,> 100,> 100
